Test results from ChEMBL document CHEMBL3885861, “Open TG-GATES”.

Species on record: Rattus norvegicus
Experiment: Open TG-GATES - Regimen: Daily Repeat
Type: toxicity, organism-based, Sprague-Dawley
Parameters: regimen Daily Repeat, gender Male, age 6 weeks
Conditions: in vivo, po, 0 mg/kg, route gavage, dose level Control; for APTT / Bas / Eos / Fbg / Hb / Ht / Lym / MCH / MCHC / MCV / Mono / Neu / PT / Plat / RBC / Ret / WBC: tissue Blood; for KIDNEY_L / KIDNEY_R / KIDNEY_TOTAL: tissue Kidney; for LIVER: tissue Liver; for A/G / ALP / ALT / AST / BUN / CRE / Ca / Cl / DBIL / GLC / IP / K / LDH / Na / PL / RALB / TBIL / TC / TG / TP / gamma-GTP: tissue Plasma

CN1C(=O)OC(C)(C)C1=O [TRIMETHADIONE]
TERMINAL_BW (72 h, time 3 day): 243.9 g | APTT (72 h, time 3 day): 17 s | Bas (72 h, time 3 day): 0% | Eos (72 h, time 3 day): 0.8% | Fbg (72 h, time 3 day): 265 mg/dL | Hb (72 h, time 3 day): 13.7 g/dL | Ht (72 h, time 3 day): 41% | Lym (72 h, time 3 day): 79.8% | MCH (72 h, time 3 day): 21.4 pg | MCHC (72 h, time 3 day): 33.4% | MCV (72 h, time 3 day): 64.2 fL | Mono (72 h, time 3 day): 2.6% | Neu (72 h, time 3 day): 16.4% | PT (72 h, time 3 day): 13.3 s | Plat (72 h, time 3 day): 131 x10_4/uL | RBC (72 h, time 3 day): 639.2 x10_4/ul | Ret (72 h, time 3 day): 7.2% | WBC (72 h, time 3 day): 85.5 x10_2/uL | KIDNEY_L (72 h, time 3 day): 1 g | KIDNEY_R (72 h, time 3 day): 1 g | KIDNEY_TOTAL (72 h, time 3 day): 2 g | LIVER (72 h, time 3 day): 11.2 g | A/G (72 h, time 3 day): 0.8 | ALP (72 h, time 3 day): 1967.6 IU/L | ALT (72 h, time 3 day): 47.4 IU/L | AST (72 h, time 3 day): 78 IU/L | BUN (72 h, time 3 day): 15 mg/dL | CRE (72 h, time 3 day): 0.2 mg/dL | Ca (72 h, time 3 day): 11.2 mg/dL | Cl (72 h, time 3 day): 106 meq/L | DBIL (72 h, time 3 day): 0.006 mg/dL | GLC (72 h, time 3 day): 180.6 mg/dL | IP (72 h, time 3 day): 7 mg/dL | K (72 h, time 3 day): 4.6 meq/L | LDH (72 h, time 3 day): 109.4 IU/L | Na (72 h, time 3 day): 141.6 meq/L | PL (72 h, time 3 day): 166.6 mg/dL | RALB (72 h, time 3 day): 2.6 g/dL | TBIL (72 h, time 3 day): 0.05 mg/dL | TC (72 h, time 3 day): 83.6 mg/dL | TG (72 h, time 3 day): 141.8 mg/dL | TP (72 h, time 3 day): 5.7 g/dL | gamma-GTP (72 h, time 3 day): 1 IU/L | TERMINAL_BW ([…], time 7 day): 282.3 g | TERMINAL_BW ([…], time 14 day): 333.6 g | TERMINAL_BW ([…], time 28 day): 429.2 g | APTT ([…], time 7 day): 17.7 s | Bas ([…], time 7 day): 0.6% | Eos ([…], time 7 day): 1% | Fbg ([…], time 7 day): 263.8 mg/dL | Hb ([…], time 7 day): 13.8 g/dL | Ht ([…], time 7 day): 41% | Lym ([…], time 7 day): 79.4% | MCH ([…], time 7 day): 21.4 pg | MCHC ([…], time 7 day): 33.6% | MCV ([…], time 7 day): 63.9 fL | Mono ([…], time 7 day): 2.4% | Neu ([…], time 7 day): 16.4% | PT ([…], time 7 day): 13.9 s | Plat ([…], time 7 day): 123.3 x10_4/uL | RBC ([…], time 7 day): 641.8 x10_4/ul | Ret ([…], time 7 day): 5.8% | WBC ([…], time 7 day): 89.3 x10_2/uL | APTT ([…], time 14 day): 19.5 s | Bas ([…], time 14 day): 0.4% | Eos ([…], time 14 day): 1.2% | Fbg ([…], time 14 day): 284.6 mg/dL | Hb ([…], time 14 day): 14.9 g/dL | Ht ([…], time 14 day): 43.9% | Lym ([…], time 14 day): 77.8% | MCH ([…], time 14 day): 20.8 pg | MCHC ([…], time 14 day): 33.9% | MCV ([…], time 14 day): 61.2 fL | Mono ([…], time 14 day): 2% | Neu ([…], time 14 day): 18.6% | PT ([…], time 14 day): 13.4 s | Plat ([…], time 14 day): 127.4 x10_4/uL | RBC ([…], time 14 day): 719 x10_4/ul | Ret ([…], time 14 day): 4.4% | WBC ([…], time 14 day): 99.3 x10_2/uL | APTT ([…], time 28 day): 17.5 s | Bas ([…], time 28 day): 0% | Eos ([…], time 28 day): 1.2% | Fbg ([…], time 28 day): 265.2 mg/dL | Hb ([…], time 28 day): 15.4 g/dL | Ht ([…], time 28 day): 44.4% | Lym ([…], time 28 day): 78.4% | MCH ([…], time 28 day): 19.8 pg | MCHC ([…], time 28 day): 34.8% | MCV ([…], time 28 day): 57.1 fL | Mono ([…], time 28 day): 1.6% | Neu ([…], time 28 day): 18.2% | PT ([…], time 28 day): 13.7 s | Plat ([…], time 28 day): 109.9 x10_4/uL | RBC ([…], time 28 day): 778.2 x10_4/ul | Ret ([…], time 28 day): 2.6% | WBC ([…], time 28 day): 114 x10_2/uL | KIDNEY_L ([…], time 7 day): 1.1 g | KIDNEY_R ([…], time 7 day): 1.1 g | KIDNEY_TOTAL ([…], time 7 day): 2.3 g | KIDNEY_L ([…], time 14 day): 1.2 g | KIDNEY_R ([…], time 14 day): 1.2 g | KIDNEY_TOTAL ([…], time 14 day): 2.4 g | KIDNEY_L ([…], time 28 day): 1.5 g | KIDNEY_R ([…], time 28 day): 1.5 g | KIDNEY_TOTAL ([…], time 28 day): 2.9 g | LIVER ([…], time 7 day): 12.5 g | LIVER ([…], time 14 day): 14.3 g | LIVER ([…], time 28 day): 16.8 g | A/G ([…], time 7 day): 0.8 | ALP ([…], time 7 day): 1722.8 IU/L | ALT ([…], time 7 day): 38.2 IU/L | AST ([…], time 7 day): 67.4 IU/L | BUN ([…], time 7 day): 16.8 mg/dL | CRE ([…], time 7 day): 0.2 mg/dL | Ca ([…], time 7 day): 11 mg/dL | Cl ([…], time 7 day): 105.2 meq/L | DBIL ([…], time 7 day): 0.01 mg/dL | GLC ([…], time 7 day): 191.8 mg/dL | IP ([…], time 7 day): 6.9 mg/dL | K ([…], time 7 day): 4.1 meq/L | LDH ([…], time 7 day): 107.8 IU/L | Na ([…], time 7 day): 144 meq/L | PL ([…], time 7 day): 165.4 mg/dL | RALB ([…], time 7 day): 2.6 g/dL | TBIL ([…], time 7 day): 0.052 mg/dL | TC ([…], time 7 day): 85.6 mg/dL | TG ([…], time 7 day): 109 mg/dL | TP ([…], time 7 day): 5.8 g/dL | gamma-GTP ([…], time 7 day): 1 IU/L | A/G ([…], time 14 day): 0.8 | ALP ([…], time 14 day): 1703.8 IU/L | ALT ([…], time 14 day): 42 IU/L | AST ([…], time 14 day): 73.8 IU/L | BUN ([…], time 14 day): 17.2 mg/dL | CRE ([…], time 14 day): 0.2 mg/dL | Ca ([…], time 14 day): 10.8 mg/dL | Cl ([…], time 14 day): 107.2 meq/L | DBIL ([…], time 14 day): 0.004 mg/dL | GLC ([…], time 14 day): 208.2 mg/dL | IP ([…], time 14 day): 6.8 mg/dL | K ([…], time 14 day): 3.9 meq/L | LDH ([…], time 14 day): 98.8 IU/L | Na ([…], time 14 day): 145.6 meq/L | PL ([…], time 14 day): 164.6 mg/dL | RALB ([…], time 14 day): 2.7 g/dL | TBIL ([…], time 14 day): 0.042 mg/dL | TC ([…], time 14 day): 80.8 mg/dL | TG ([…], time 14 day): 128.8 mg/dL | TP ([…], time 14 day): 6 g/dL | gamma-GTP ([…], time 14 day): 1 IU/L | A/G ([…], time 28 day): 0.8 | ALP ([…], time 28 day): 1156.4 IU/L | ALT ([…], time 28 day): 35 IU/L | AST ([…], time 28 day): 62.6 IU/L | BUN ([…], time 28 day): 15 mg/dL | CRE ([…], time 28 day): 0.2 mg/dL | Ca ([…], time 28 day): 10.8 mg/dL | Cl ([…], time 28 day): 105.6 meq/L | DBIL ([…], time 28 day): 0.004 mg/dL | GLC ([…], time 28 day): 183.8 mg/dL | IP ([…], time 28 day): 6 mg/dL | K ([…], time 28 day): 4 meq/L | LDH ([…], time 28 day): 64.2 IU/L | Na ([…], time 28 day): 142.6 meq/L | PL ([…], time 28 day): 159.8 mg/dL | RALB ([…], time 28 day): 2.8 g/dL | TBIL ([…], time 28 day): 0.048 mg/dL | TC ([…], time 28 day): 73.6 mg/dL | TG ([…], time 28 day): 188.4 mg/dL | TP ([…], time 28 day): 6.3 g/dL | gamma-GTP ([…], time 28 day): 1 IU/L
